# According to patent US20230295234A1, “ANTIMICROBIAL PEPTIDOMIMETICS” (SPEXIS AG, priority 2020, published 2023):
# Peptide text beside a SMILES is read from it.
# Legend:
# [1] = system: human red blood cells (hRBC); test: Hemolysis of human red blood cells; type: cell-based; settings: red cells of human, 1 h
# Method in brief: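 Percent hemolysis is OD540 of peptide-treated supernatant relative to water-lysed cells. Each peptide was tested at 200 μg/mL against 20% (v/v) washed human erythrocytes. Incubation was 1 h at 37 °C, 300 rpm.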
# [2] = system: Escherichia coli ATCC 25922; settings: ATCC 25922
# Method in brief: (§1)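 First, bacterial colonies are suspended in saline and adjusted to 0.5 McFarland. Next, the suspension is diluted into cation-adjusted Mueller-Hinton II broth (approx. 5×10^5 CFU/mL). Finally, it is added to two-fold serially diluted peptide, with polysorbate 80 at 0.002% final.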
# [3] = system: Klebsiella pneumoniae SSI3010; settings: SSI3010
# Method in brief: as §1
# [4] = system: Escherichia coli MCR-1 Af 45; settings: MCR-1 Af 45
# Method in brief: as §1
SMILES,Hemolysis at 0.2 g/L [1] [%],Escherichia coli ATCC 25922 MIC [2] [µg/mL],Klebsiella pneumoniae SSI3010 MIC [3] [µg/mL],Escherichia coli MCR-1 Af 45 MIC [4] [µg/mL]
"CC[C@H](C)[C@H](NC(=O)[C@@H]1C[C@@H](O)CN1C(=O)[C@@H](NC(=O)[C@@H]1C[C@@H](O)CN1C(=O)[C@H](CCCCN)NC(=O)[C@@H](N)CCCCN)C(C)C)C(=O)N[C@H](C(=O)N[C@@H](Cc1ccc(O)cc1)C(=O)N[C@H]1CSSC[C@@H](C(=O)N[C@@H](CCN)C(=O)N[C@@H](CCCNC(=N)N)C(=O)N[C@@H](Cc2ccc(O)cc2)C(=O)O)NC(=O)[C@H](CCCCN)NC(=O)[C@@H](CCN)NC(=O)[C@H]([C@@H](C)O)NC(=O)[C@H](CCN)NC(=O)[C@H](CCCNC(=N)N)NC(=O)[C@H](CC(N)=O)NC1=O)[C@@H](C)O [Example 121, Lys-Lys-Hyp-Val-Hyp-Ile-Thr-Tyr-Cys-Asn-Arg-Dab-Thr-^DDab-Lys-Cys-Dab-Arg-Tyr] (HELM PEPTIDE1{K.K.[Hyp].V.[Hyp].I.T.Y.C.N.R.[Dab].T.[NCC[C@@H](N[*:1])C(=O)[*:2]].K.C.[Dab].R.Y}$PEPTIDE1,PEPTIDE1,9:R3-16:R3$$$V2.0)",0,0.03125,0.125,0.0625
"CC[C@H](C)[C@H](NC(=O)[C@@H]1C[C@@H](O)CN1C(=O)[C@@H](NC(=O)[C@@H]1C[C@@H](O)CN1C(=O)[C@H](CCCCN)NC(=O)[C@@H](N)CCCCN)C(C)C)C(=O)N[C@H](C(=O)N[C@@H](Cc1ccc(O)cc1)C(=O)N[C@@H]1C(=O)N[C@@H](Cc2c[nH]cn2)C(=O)N[C@@H](CCCNC(=N)N)C(=O)N[C@@H](CCN)C(=O)N[C@@H]([C@@H](C)O)C(=O)N[C@H](CCN)C(=O)N[C@@H](CCCCN)C(=O)N[C@H](C(=O)N[C@@H](CCN)C(=O)N[C@@H](CCCNC(=N)N)C(=O)N[C@@H](Cc2ccc(O)cc2)C(=O)O)CSSC1(C)C)[C@@H](C)O [Example 122, Lys-Lys-Hyp-Val-Hyp-Ile-Thr-Tyr-Pen-His-Arg-Dab-Thr-^DDab-Lys-Cys-Dab-Arg-Tyr] (HELM PEPTIDE1{K.K.[Hyp].V.[Hyp].I.T.Y.[Pen].H.R.[Dab].T.[NCC[C@@H](N[*:1])C(=O)[*:2]].K.C.[Dab].R.Y}$PEPTIDE1,PEPTIDE1,9:R3-16:R3$$$V2.0)",0,0.0625,0.125,0.125
"CC[C@H](C)[C@H](NC(=O)[C@@H]1C[C@@H](O)CN1C(=O)[C@@H](NC(=O)[C@@H]1C[C@@H](O)CN1C(=O)[C@H](CCCCN)NC(=O)[C@@H](N)CCCCN)C(C)C)C(=O)N[C@H](C(=O)N[C@@H](Cc1ccc(O)cc1)C(=O)N[C@@H]1C(=O)N[C@@H](CC(N)=O)C(=O)N[C@@H](CCCNC(=N)N)C(=O)N[C@@H](CCN)C(=O)N[C@@H]([C@@H](C)O)C(=O)N[C@H](CCN)C(=O)N[C@@H](CCCCN)C(=O)N[C@H](C(=O)N[C@@H](CO)C(=O)N[C@@H](CCCNC(=N)N)C(=O)N[C@@H](Cc2ccc(O)cc2)C(=O)O)CSSC1(C)C)[C@@H](C)O [Example 123, Lys-Lys-Hyp-Val-Hyp-Ile-Thr-Tyr-Pen-Asn-Arg-Dab-Thr-^DDab-Lys-Cys-Ser-Arg-Tyr] (HELM PEPTIDE1{K.K.[Hyp].V.[Hyp].I.T.Y.[Pen].N.R.[Dab].T.[NCC[C@@H](N[*:1])C(=O)[*:2]].K.C.S.R.Y}$PEPTIDE1,PEPTIDE1,9:R3-16:R3$$$V2.0)",0,0.125,0.25,0.0625
"CC[C@H](C)[C@H](NC(=O)[C@@H]1C[C@@H](O)CN1C(=O)[C@@H](NC(=O)[C@@H]1C[C@@H](O)CN1C(=O)[C@H](CCCCN)NC(=O)[C@@H](N)CCCCN)C(C)C)C(=O)N[C@H](C(=O)N[C@@H](Cc1ccc(O)cc1)C(=O)N[C@@H]1C(=O)N[C@@H](CC(N)=O)C(=O)N[C@@H](CCCNC(=N)N)C(=O)N[C@@H](CCN)C(=O)N[C@@H]([C@@H](C)O)C(=O)N[C@H](CCN)C(=O)N[C@@H](CCCCN)C(=O)N[C@H](C(=O)N[C@@H](CCN)C(=O)N[C@@H](CCCN)C(=O)N[C@@H](Cc2ccc(O)cc2)C(=O)O)CSSC1(C)C)[C@@H](C)O [Example 124, Lys-Lys-Hyp-Val-Hyp-Ile-Thr-Tyr-Pen-Asn-Arg-Dab-Thr-^DDab-Lys-Cys-Dab-Orn-Tyr] (HELM PEPTIDE1{K.K.[Hyp].V.[Hyp].I.T.Y.[Pen].N.R.[Dab].T.[NCC[C@@H](N[*:1])C(=O)[*:2]].K.C.[Dab].[Orn].Y}$PEPTIDE1,PEPTIDE1,9:R3-16:R3$$$V2.0; N-terminus and C-terminus assumed)",0,0.125,0.25,0.0625
"CC[C@H](C)[C@H](NC(=O)[C@@H]1C[C@@H](N)CN1C(=O)[C@@H](NC(=O)[C@@H]1C[C@@H](O)CN1C(=O)[C@H](CCCCN)NC(=O)[C@@H](N)CCCCN)C(C)C)C(=O)N[C@H](C(=O)N[C@@H](Cc1ccc(O)cc1)C(=O)N[C@@H]1C(=O)N[C@@H](CC(N)=O)C(=O)N[C@@H](CCCNC(=N)N)C(=O)N[C@@H](CCN)C(=O)N[C@@H]([C@@H](C)O)C(=O)N[C@H](CCN)C(=O)N[C@@H](CCCCN)C(=O)N[C@H](C(=O)N[C@@H](CCN)C(=O)N[C@@H](CCCNC(=N)N)C(=O)N[C@@H](Cc2ccc(O)cc2)C(=O)O)CSSC1(C)C)[C@@H](C)O [Example 125, Lys-Lys-Hyp-Val-Pro((4R)NH2)-Ile-Thr-Tyr-Pen-Asn-Arg-Dab-Thr-^DDab-Lys-Cys-Dab-Arg-Tyr] (HELM PEPTIDE1{K.K.[Hyp].V.[N[C@@H]1C[C@@H](C(=O)[*:2])N([*:1])C1].I.T.Y.[Pen].N.R.[Dab].T.[NCC[C@@H](N[*:1])C(=O)[*:2]].K.C.[Dab].R.Y}$PEPTIDE1,PEPTIDE1,9:R3-16:R3$$$V2.0)",0,≤0.03125,0.0625,0.0625
"CC[C@H](C)[C@H](NC(=O)CN(CCN)C(=O)[C@@H](NC(=O)[C@@H]1C[C@@H](O)CN1C(=O)[C@H](CCCCN)NC(=O)[C@@H](N)CCCCN)C(C)C)C(=O)N[C@H](C(=O)N[C@@H](Cc1ccc(O)cc1)C(=O)N[C@@H]1C(=O)N[C@@H](CC(N)=O)C(=O)N[C@@H](CCCNC(=N)N)C(=O)N[C@@H](CCN)C(=O)N[C@@H]([C@@H](C)O)C(=O)N[C@H](CCN)C(=O)N[C@@H](CCCCN)C(=O)N[C@H](C(=O)N[C@@H](CCN)C(=O)N[C@@H](CCCNC(=N)N)C(=O)N[C@@H](Cc2ccc(O)cc2)C(=O)O)CSSC1(C)C)[C@@H](C)O [Example 126, Lys-Lys-Hyp-Val-Ndab-Ile-Thr-Tyr-Pen-Asn-Arg-Dab-Thr-^DDab-Lys-Cys-Dab-Arg-Tyr] (HELM PEPTIDE1{K.K.[Hyp].V.[NCCN(CC(=O)[*:2])[*:1]].I.T.Y.[Pen].N.R.[Dab].T.[NCC[C@@H](N[*:1])C(=O)[*:2]].K.C.[Dab].R.Y}$PEPTIDE1,PEPTIDE1,9:R3-16:R3$$$V2.0)",0,≤0.03125,0.0625,≤0.03125
